From US8030327B2 (MDS K.K., priority 2004, dated 2011) come the findings set out here.

Each structure is given as a SMILES string.

One assay concerns the target T1, full-length human PLK1 (Homo sapiens, UniProt P53350).
T1 construct: a baculovirus expressing full-length human PLK1; GST (glutathione S-transferase) (N, cleaved yes); made in house; host or cells: Spodoptera frugiperda Sf9 insect cells (baculovirus)
Kind of assay: Measurement of PLK1 activity (33P-ATP, phosphocellulose filter). It counts as biochemical. As to conditions: 50 μM substrate peptide, 50 μM ATP, 25° C., 20 minutes, read-out: PLK1 inhibitory activity.

In a further assay the test system is HeLaS3 cells. Kind of assay: PLK1 inhibitory activity at cellular level: M phase arrest by phospho-histone H3 (Ser10) immunofluorescence. In kind it is cell-based, human. As to conditions: HeLaS3 cells synchronized at G1/S; 12 hours after addition; concentration inducing 50% of maximum ratio of cells arrested at M phase. Here is the method:
For the measurement of the PLK 1 inhibitory activity of the compound at the cellular level, human uterine cervix cell lines HeLaS3 cells were used. The HeLaS3 cell was obtained from American Type Culture Collection (ATTC), and cultured in a CO2-incubator of saturated steam, in the presence of 5% CO2, by using Dulbecco's Modified Eagle's Medium containing 10% fetal calf serum at 37° C.
It has been reported that PLK 1 plays an important role in various stages of mitotic phase (M-phase) in mammalian cells (Nature Review Molecular Cell Biology (Nat. Rev. Mol. Cell. Biol.), Vol. 5, 429, (2004)). In fact, when the mammalian cells are treated with PLK 1 siRNA to control the expression level, the cell cycle progression is inhibited and thus the cell is arrested at M phase. In addition, when examining the phosphorylation level of serine (10th residue on histone H3) which is thought to be required for a chromosome condensation in M phase, is examined, it is observed that the level is enhanced to a high level. Thus, after treating the cell with the compound according to the invention, the phosphorylation level of histone H3 was examined by the indirect fluorescent antibody technique, the cells arrested at M phase were identified by using the level thereof as an indicator to analyze the ratio of cells arrested at M phase, and then EC50 value of each compound was calculated to evaluate the PLK 1 inhibitory activity at a cellular level.
First, HeLaS3 cells synchronized at the G1/S phase by the double-thymidine method were seeded into a lysine-treated 96-well plate (Falcon Corp.) in the ratio of 8,000 per one well, and allowed to stand still in the above-mentioned CO2 incubator. 4 hours after the seeding, the compound according to the invention, which is diluted in series, was added into each well of the plate, and further allowed to stand still in the CO2 incubator. 12 hours after the addition of the compound according to the invention, the culture medium containing the compound according to the invention in each well of the plate was removed, and then 100 μL of ice-cold 100% methanol (Wako Pure Chemical Industries, Ltd.) was added, to carry out cell fixation for 10 minutes and treatment for increasing the membrane permeability. Subsequently, to the wells in which the methanol was removed, 50 μL of 1% BSA/PBS was added, and then blocking was carried out for 30 minutes. Thereafter, for the primary antibody reaction, 50 μL of 1% BSA/PBS containing a 2.5 mg/mL Anti-phospho Histone H3 (Ser10) antibody (Upstate Corp.) was added, and the plate was left over at room temperature for 90 minutes. After terminating the reaction, each well was once washed with PBS, and for the second antibody reaction, 50 μL of 1% BSA/PBS containing 1.5 mg/mL Cy5-labelled anti-rabbit IgG (H+ L) antibody (Chemicon) and 10 ug/mL DAPI (Sigma) which is a nucleus staining regent, was added to the wells, and further left over at room temperature for 90 minutes. After terminating the reaction, the reaction solution in wells was removed and replaced with 100 μL of PBS, and then fluorescence images were captured by using IN Cell Analyzer 1000 (manufactured by GE Amersham) to analyze the ratio of the cells arrested at M phase (Mitotic index) in each view.

Assay [1] addresses T2, PLK1-T210D (human active type PLK1) (Homo sapiens, UniProt P53350, T210D).
T2 construct: a baculovirus expressing full-length human PLK1; GST (glutathione S-transferase) (N); made in house; host or cells: insect cells (baculovirus)
As to the kind of experiment: Measurement of PLK1-T210D activity (33P-ATP, phosphocellulose filter). In kind it is biochemical. Conditions: 50 μM substrate peptide, 50 μM ATP, 25° C., 20 minutes, read-out: PLK1-T210D inhibitory activity.
Procedure: For the measurement of the PLK1 and PLK1-T210D activity, a synthetic peptide (aspartic acid-glutamic acid leucine-methionine-glutamic acid-alanine-serine-phenylalanine-alanine-aspartic acid-glutamine-aspartic acid-alanine-lysine) in which the serine surrounding sequence of the amino acid sequence No. 198 of CDC25C having been reported as the site for PLK1 substrate [EMBO Report, Vol. 3, 341 (2002)] is altered, was used as a substrate.
The volume of the reaction solution was 21.1 μL and the composition of the reaction buffer was 20 mM tris-hydrochloric acid buffer (pH 7.4)/10 mM magnesium chloride/0.5 mM dithiothreitol/1 mM EGTA (ethylene glycol-bis(beta-aminoethylether)-N,N,N′,N′,-tetraacetic acid). Thereto, purified PLK 1, 50 μM of the substrate peptide, 50 μM of non-labeled adenosine triphosphate (ATP), and 1 μCi of [γ-^33P]-labeled ATP (2000 to 4000 Ci/mmole) were added to carry out the reaction at 25° C. for 20 minutes. Then, 10 μL of 350 mM phosphate buffer was added to the reaction system to terminate the reaction. The resultant solution was spotted onto a multi-screen phosphocellulose filter on a 96-well plate. After washing the phosphocellulose filter with 75 mM phosphate buffer, the filter was dried to measure the radioactivity with a liquid scintillation counter. […]

T1 sequence (P53350 whole entry): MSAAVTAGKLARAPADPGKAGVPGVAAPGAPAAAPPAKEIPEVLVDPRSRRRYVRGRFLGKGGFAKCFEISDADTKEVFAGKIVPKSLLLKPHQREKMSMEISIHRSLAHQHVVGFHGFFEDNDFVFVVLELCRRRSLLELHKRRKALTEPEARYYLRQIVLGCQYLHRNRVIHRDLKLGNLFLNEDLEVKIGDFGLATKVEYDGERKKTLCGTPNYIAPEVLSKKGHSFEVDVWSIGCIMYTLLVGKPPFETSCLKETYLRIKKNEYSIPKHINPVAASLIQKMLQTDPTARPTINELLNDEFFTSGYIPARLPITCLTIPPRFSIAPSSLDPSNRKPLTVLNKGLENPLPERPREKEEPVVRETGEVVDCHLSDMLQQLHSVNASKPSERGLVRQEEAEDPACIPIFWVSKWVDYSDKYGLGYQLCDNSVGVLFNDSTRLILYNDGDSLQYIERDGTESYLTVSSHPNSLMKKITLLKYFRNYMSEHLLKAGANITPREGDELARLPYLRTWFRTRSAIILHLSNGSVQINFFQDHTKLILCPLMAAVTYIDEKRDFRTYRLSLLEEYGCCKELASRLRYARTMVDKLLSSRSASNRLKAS
T2 sequence (P53350 whole entry T210D): as the sequence (P53350 whole entry) above, with T210D counted along it
Procedure for full-length human PLK1: First, a baculovirus expressing full-length human PLK1 of which the N terminus is fused with GST (glutathione S-transferase) was prepared, and then the PLK1 transfected into a Spodoptera frugiperda(Sf)9 insect cell was highly expressed as a GST-fused protein. The cells were recovered and suspended in a lysis buffer (50 mM tris-hydrochloric acid buffer (pH 7.4)/150 mM sodium chloride/1 mM EDTA (ethylenediamine tetraacetic acid)/1 mM dithiothreitol/0.1% polyoxyethylene sorbitan monolaurate) to break open cells with a sonicator, and supernatant was recovered after a centrifugation. The supernatant was reacted on glutathione sepharose beads, and then the beads were washed with a lysis buffer. Thereafter, the beads were reacted in a lysis buffer containing Precision Protease to recover supernatant. […]
The reaction was carried out in accordance with the method of Toyoshima-Morimoto et al. [Nature, Vol. 410, 215-220, (2001)]. […] After washing the phosphocellulose filter with 75 mM phosphate buffer, the filter was dried to measure the radioactivity with a liquid scintillation counter. […]

For `CC(Oc1cc(-c2cnc3ccccn23)sc1C(N)=O)c1ccccc1[N+](=O)[O-]` (centres unmarked) [Example 44, 5-imidazo[1,2-a]pyridin-3-yl-3-[1-(2-nitrophenyl)ethoxy]thiophene-2-carboxyamide], the IC50 (at full-length human PLK1; in assay [1]) was 12 nM throughout. In addition, in the assay with HeLaS3 cells, the EC50 (usually the midpoint of the concentration-response curve) turned out to be 70 nM.
`C[C@@H](Oc1cc(-c2cnc3ccc(OCCO)cn23)sc1C(N)=O)c1ccccc1Cl` [Example 66, 3-[(1R)-1-(2-chlorophenyl)ethoxy]-5-[6-(2-hydroxyethoxy)imidazo[1,2-a]pyridin-3-yl]thiophene-2-carboxyamide]: the EC50 with HeLaS3 cells came to 360 nM.
With `C[C@@H](Oc1cc(-c2cnc3ccc(CN4CCNCC4)cn23)sc1C(N)=O)c1ccccc1Cl` [Example 119, 3-[(1R)-1-(2-chlorophenyl)ethoxy]-5-[6-(piperazin-1-ylmethyl)imidazo[1,2-a]pyridin-3-yl]thiophene-2-carboxyamide], the IC50 at full-length human PLK1 amounted to 28 nM; in assay [1], 22 nM. In addition, the EC50 in the assay on HeLaS3 cells stood at 210 nM.
Regarding `CC(Oc1nc(-c2cnc3ccccn23)sc1C(N)=O)c1ccccc1Cl` (centres unmarked) [Example 161], the half-maximal effective concentration (EC50) in the assay on HeLaS3 cells amounted to 490 nM.
In the case of `CC(Oc1cc(-c2cnc3cnccn23)sc1C(N)=O)c1ccccc1Cl` (centres unmarked) [Example 163], the EC50 with HeLaS3 cells worked out at 660 nM.
For `C[C@@H](Oc1cc(-c2cnc3ccc(C#N)cn23)sc1C(N)=O)c1ccc(CNC(C)(C)CO)cc1OC(F)F` [Example 188, 5-(6-cyanoimidazo[1,2-a]pyridin-3-yl)-3-[(1R)-1-(2-(difluoromethoxy)-4-{[(2-hydroxy-1,1-dimethylethyl)amino]methyl}phenyl)ethoxy]thiophene-2-carboxyamide], the EC50 in the assay on HeLaS3 cells stood at 390 nM.
Still for that read-out and setting: next, `C[C@@H](Oc1nc(-c2cnc3cnc(CS(C)(=O)=O)cn23)sc1C(N)=O)c1ccc(CN(C)C)cc1Cl` [Example 236]: 100 nM.
